In one assay the target is T1, CCK receptor (pancreas) (Rattus norvegicus, UniProt P30551).
T1 construct: The whole pancreas was dissected free of fat tissue and was homogenized; from tissue; host or cells: rat pancreas membranes (Sprague-Dawley)
T1 sequence (P30551 1-444): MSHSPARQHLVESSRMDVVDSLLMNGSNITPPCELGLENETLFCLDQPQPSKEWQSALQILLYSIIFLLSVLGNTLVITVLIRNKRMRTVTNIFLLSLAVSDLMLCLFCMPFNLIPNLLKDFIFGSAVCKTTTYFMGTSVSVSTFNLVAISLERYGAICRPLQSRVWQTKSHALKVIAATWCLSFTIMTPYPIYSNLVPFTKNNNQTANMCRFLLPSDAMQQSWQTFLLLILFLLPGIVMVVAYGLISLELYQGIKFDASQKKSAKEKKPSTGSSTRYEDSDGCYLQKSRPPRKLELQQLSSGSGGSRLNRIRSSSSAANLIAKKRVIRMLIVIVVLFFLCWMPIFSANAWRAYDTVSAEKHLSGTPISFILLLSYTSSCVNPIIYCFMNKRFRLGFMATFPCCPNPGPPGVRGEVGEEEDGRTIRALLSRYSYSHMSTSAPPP
Briefly: CCK Receptor Binding (Pancreas): inhibition of ^125 I-CCK-33 binding. Further details: species or system Male Sprague-Dawley rats. Conditions: rat pancreas membranes, ^125 I-CCK-33, 37° C., 30 minutes. As for the experimental part:
1. CCK Receptor Binding (Pancreas)
CCK-33 was radiolabeled with ^125 I-Bolton Hunter reagent (2000 Ci/mmole) as described by Sankara et al. (J. Biol. Chem. 254: 9349-9351, 1979). Receptor binding was performed according to Innis and Snyder (Proc. Natl. Acad. Sci. 77: 6917-6921, 1980) with the minor modification of adding the additional protease inhibitors, phenylmethane sulfonyl fluoride and o-phenanthroline.
Male Sprague-Dawley rats (200-350 g) were sacrificed by decapitation. The whole pancreas was dissected free of fat tissue and was homogenized in 20 volumes of ice-cold 50 mM, Tris HCl (pH 7.7 at 25° C.) with a Brinkmann Polytron PT 10. The homogenates were centrifuged at 48,000 g for 10 min. Pellets were resuspended in Tris Buffer, centrifuged as above and resuspended in 200 volumes of binding assay buffer (50 mM Tris HCl, pH 7.7 at 25° C., 5 mM dithiothrietol, 0.1 mM bacitracin, 1.2 mM phenylmethane sulfonyl fluoride and 0.5 mM o-phenanthroline). […] All assays were run in duplicate or triplicate. The reaction mixtures were incubated at 37° C. for 30 minutes and centrifuged in a Beckman Microfuge (4 minutes) immediately after adding 1 ml of ice-cold incubation buffer. The supernatant was aspirated and discarded, pellets were counted with a Beckman gamma 5000. For Scatchard analysis (Ann. N.Y. Acad. Sci. 51: 660, 1949), ^125 I-CCK-33 was progressively diluted with increasing concentrations of CCK-33.

Assay [1] addresses T2, CCK receptor (brain, cerebral cortex) (Cavia porcellus, UniProt H0VZC5).
T2 construct: Cerebral cortex was dissected and used as a receptor source; from tissue; host or cells: guinea pig cerebral cortex membranes (male Hartley)
T2 sequence (H0VZC5 1-426): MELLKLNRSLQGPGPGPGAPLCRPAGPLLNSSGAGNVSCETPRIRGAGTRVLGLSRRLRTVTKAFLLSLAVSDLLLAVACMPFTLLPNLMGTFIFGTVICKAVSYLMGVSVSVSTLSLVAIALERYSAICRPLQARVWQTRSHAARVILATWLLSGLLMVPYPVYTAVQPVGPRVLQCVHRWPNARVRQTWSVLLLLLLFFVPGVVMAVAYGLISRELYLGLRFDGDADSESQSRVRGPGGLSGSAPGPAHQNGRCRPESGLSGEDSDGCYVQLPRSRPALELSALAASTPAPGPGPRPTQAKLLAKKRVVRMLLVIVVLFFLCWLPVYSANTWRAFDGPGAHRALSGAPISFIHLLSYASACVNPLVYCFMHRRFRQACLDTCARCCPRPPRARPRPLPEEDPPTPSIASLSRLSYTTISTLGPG
The assay can be described thus: biochemical. It is filed as binding, Male Hartley guinea pigs. As to conditions: guinea pig cerebral cortex, ^125 I-CCK-33, 25° C., 2 hours. The gist of the method: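 Binding of [radiolabeled] CCK-33 measured by gamma counting of centrifuged pellets after 2 h at 25°C. Membranes came from guinea pig brain cortex, suspended in 10 mM HEPES, 5 mM MgCl2, 1 mM EGTA, 0.25 mg/ml bacitracin, 0.4% BSA.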

For assay [2], the target named is T3, Gastrin receptor (gastric glands) (Cavia porcellus, UniProt H0VZC5).
T3 construct: The washed guinea pig gastric glands prepared as above were resuspended; from tissue; host or cells: guinea pig gastric mucosal glands (male Hartley)
T3 sequence (H0VZC5 1-426): T2 sequence (H0VZC5 1-426)
The assay can be described thus: Gastrin Receptor Binding in Guinea Pig Gastric Glands. Further details: species or system guinea pig (male Hartley). Conditions: 25° C., 30 minutes.

[3] abbreviates: read-out: IC50 ^125 I-CCK Pancreas.
The mark [4] stands for this setting: IC50 ^125 I-Gastrin Gastric Glands.
[5] abbreviates: read-out: IC50 ^125 I-CCK Brain.
Where [6] appears, read: ^125 I-gastrin, read-out: IC50 ^125 I-Gastrin Gastric Glands.

Like-named read-outs stand apart in the source and are kept apart here. A value given as a limit tells only on which side of the number the result lay.

In the case of `CCOC(=O)CN1C(=O)C(NC(=O)Nc2ccc(Cl)cc2)N=C(c2ccccc2)c2ccccc21` (centres unmarked) [Example 204, 3-((((4-Chlorophenyl)amino)carbonyl)amino)-2,3-dihydro-2-oxo-5-phenyl-1H-1,4-benzodiazepine-1-acetic acid ethyl ester], the IC50 – broadly, the concentration at which inhibition is half-maximal – is 0.37 µM at CCK receptor (pancreas) (setting [3]), 0.001 µM in assay [1] (IC50 ^125 I-CCK Brain) and 0.0033 µM in assay [2] (setting [4]).

For the compound `CN1C(=O)C(NC(=O)Nc2cccc([N+](=O)[O-])c2)N=C(c2ccccc2)c2ccccc21` (centres unmarked) [Example 264, N-(2,3-Dihydro-1-methyl-2-oxo-5-phenyl-1H-1,4-benzodiazepin-3-yl)-N'-(3-nitrophenyl)-urea], the values for the IC50 (at CCK receptor (pancreas) (setting [3]); in assay [1] (IC50 ^125 I-CCK Brain); in assay [2] (setting [4])) were 0.034 µM, 0.011 µM and 0.006 µM, respectively.

With `CN1C(=O)C(C(O)c2cn(C)c3ccccc23)N=C(c2ccccc2)c2ccccc21` (racemic) [Example 50b, 1,3-Dihydro-3(RS)-[1-hydroxy-1-[3-(1-methylindolyl)]]-methyl-1-methyl-5-phenyl-2H-1,4-benzodiazepin-2-one], the IC50 on CCK receptor (pancreas) (IC50 ^125 I-CCK Pancreas) amounted to 100 µM; in assay [1] (setting [5]), 40 µM; in assay [2] (setting [6]), 61 µM.

As to `CN1C(=O)[C@H](NC(=O)c2ccc(Cl)cc2)N=C(c2ccccc2F)c2ccccc21` [Example 90, 3(R)-(-)-1,3-Dihydro-3-(4-chlorobenzoylamino)-5-(2-fluorophenyl)-1-methyl-2H-1,4-benzodiazepin-2-one], the IC50 on CCK receptor (pancreas) (setting [3]) came out at 0.049 µM; in assay [1] (IC50 ^125 I-CCK Brain) it was 11 µM; in assay [2] (setting [6]), 5.2 µM.

`CC(C)CCN1C(=O)[C@@H](Cc2c[nH]c3ccccc23)N=C(c2ccccc2F)c2ccccc21` [Example 39, 1,3-Dihydro-5-(2-fluorophenyl)-3(R)-(3'-indolyl) methyl-1-(3-methylbutyl)-2H-1,4-benzodiazepine-2-one]: the IC50 at CCK receptor (pancreas) (IC50 ^125 I-CCK Pancreas) worked out at 100 µM; in assay [1] (IC50 ^125 I-CCK Brain), 30 µM; in assay [2] (setting [4]), 23 µM.

On to `CCNC(=O)CN1C(=O)C(NC(=O)OCc2ccccc2)N=C(c2ccccc2)c2ccccc21` (centres unmarked) [Example 215], for which the IC50 on CCK receptor (pancreas) (IC50 ^125 I-CCK Pancreas) is 4.8 µM; in assay [1] (setting [5]), 1.8 µM; in assay [2] (setting [6]), 0.56 µM.

Regarding `CN1C(=O)C(NC(=O)Nc2cccc(Br)c2)N=C(c2ccccc2)c2ccccc21` (centres unmarked) [Example 272, N-(3-Bromophenyl)-N'-(2,3-dihydro-1-methyl-2-oxo-5-phenyl-1H-1,4-benzodiazepin-3-yl)-urea], the IC50 at CCK receptor (pancreas) (setting [3]) is 0.0044 µM; in assay [1] (IC50 ^125 I-CCK Brain) it was 0.005 µM; in assay [2] (setting [4]) it was 0.0028 µM.

`CCCCCc1ccc(C(=O)N[C@@H]2N=C(c3ccccc3)c3ccccc3N(C)C2=O)cc1` [Example 206, (R)-N-(2,3-Dihydro-1-methyl-2-oxo-5-phenyl-1H-1,4-benzodiazepin-3-yl)-4-pentylbenzamide]: the values for the IC50 (on CCK receptor (pancreas) (setting [3]); in assay [2] (setting [6])) were 12 µM and more than 100 µM, respectively.

On to `CCCCCc1ccc(C(=O)N[C@H]2N=C(c3ccccc3)c3ccccc3N(C)C2=O)cc1` [Example 201], for which the IC50 at CCK receptor (pancreas) (setting [3]) is 0.25 µM; in assay [2] (setting [6]), more than 100 µM.

Turning to `CN1C(=O)C(NC(=O)c2ccc(C(F)(F)F)cc2)N=C(c2ccccc2F)c2ccccc21` (centres unmarked) [Example 218, N-(5-(2-Fluorophenyl)-2,3-dihydro-1-methyl-2-oxo-1H-1,4-benzodiazepin-3-yl)-4-(trifluoromethyl)-benzamide], the IC50 is 0.0026 µM at CCK receptor (pancreas) (IC50 ^125 I-CCK Pancreas) and 1.8 µM in assay [2] (setting [6]).

Consider `Cc1cccc(NC(=O)N[C@@H]2N=C(c3ccccc3)c3ccccc3N(C)C2=O)c1` [Example 281, (R)-N-(2,3-Dihydro-1-methyl-2-oxo-5-phenyl-1H-1,4-benzodiazepin-3-yl)-N'-(3-methylphenyl)-urea], for which the IC50 on CCK receptor (pancreas) (IC50 ^125 I-CCK Pancreas) is 1.4 µM; in assay [2] (setting [6]) it was 0.00066 µM.

On to `Cc1cccc(NC(=O)NC2N=C(c3ccccc3)c3ccccc3N(C)C2=O)c1` (centres unmarked) [Example 263, N-(2,3-Dihydro-1-methyl-2-oxo-5-phenyl-1H-1,4-benzodiazepin-3-yl)-N'-(3-methylphenyl)-urea], for which the IC50 on CCK receptor (pancreas) (setting [3]) was 0.0081 µM; in assay [2] (setting [6]), 0.0031 µM.

For `CN1C(=O)[C@@H](Cc2cn(Cc3ccccc3)c3ccccc23)N=C(c2ccccc2)c2cc(Cl)ccc21` [Example 46, 7-Chloro-1,3-dihydro-3(R)-[3'(1'-benzylindolyl)methyl]1-methyl-5-phenyl-2H-1,4-benzodiazepin-2-one], the IC50 (at CCK receptor (pancreas) (IC50 ^125 I-CCK Pancreas); in assay [1] (IC50 ^125 I-CCK Brain)) was more than 100 µM each time.

Regarding `O=C1Nc2ccc(Cl)cc2C(c2ccccc2)=NC1Cc1ccc2ccccc2c1` (racemic) [Example 18, 7-Chloro-1,3-dihydro-3(RS)-(2-naphthyl)methyl-5-phenyl-2H-1,4-benzodiazepin-2-one], the IC50 amounted to 49 µM on CCK receptor (pancreas) (IC50 ^125 I-CCK Pancreas) and 61 µM in assay [1] (IC50 ^125 I-CCK Brain).

`O=C1[C@@H](Cc2c[nH]c3ccccc23)N=C(c2ccccc2)c2cc(Cl)ccc2N1Cc1ccccc1` [Example 30, 1-Benzyl-7-chloro-1,3-dihydro-3(R)-(3'-indolyl) methyl-5-phenyl-2H-1,4-benzodiazepin-2-one]: the IC50 (at CCK receptor (pancreas) (IC50 ^125 I-CCK Pancreas); in assay [1] (IC50 ^125 I-CCK Brain)) was more than 100 µM in each case.

Turning to `CCOC(=O)CN1C(=O)[C@@H](Cc2c[nH]c3ccccc23)N=C(c2ccccc2F)c2ccccc21` [Example 42, 1,3-Dihydro-1-(ethoxycarbonylmethyl)-5-(2-fluorophenyl)-3(R)-(3'-indolyl)methyl-2H-1,4-benzodiazepin-2-one], the IC50 was 8.3 µM at CCK receptor (pancreas) (IC50 ^125 I-CCK Pancreas) and more than 100 µM in assay [1] (IC50 ^125 I-CCK Brain).

Consider `CN1C(=O)[C@@H](Cc2c[nH]c3ccccc23)N=C(c2ccccc2)c2cc(Cl)ccc21` [Example 31, 7-Chloro-1,3-Dihydro-3(R)-(3'-indolyl)methyl-1-methyl-5-phenyl-2H-1,4-benzodiazepin-2-one], for which the IC50 on CCK receptor (pancreas) (IC50 ^125 I-CCK Pancreas) is 1.4 µM; in assay [1] (IC50 ^125 I-CCK Brain), more than 100 µM.

As for `O=C1Nc2ccc(Cl)cc2C(c2ccccc2)N[C@@H]1Cc1c[nH]c2ccccc12` (stereo partly drawn) [Example 25, 7-Chloro-1,3,4,5-tetrahydro-3(R)-(3'-indolyl)methyl-5-phenyl-2H-1,4-benzodiazepin-2-one], the figures for the IC50 (at CCK receptor (pancreas) (setting [3]); in assay [1] (setting [5])) were 12 µM and more than 100 µM, respectively.

On to `O=C1Nc2ccccc2C(c2ccccc2F)=NC1Cc1cccs1` (racemic) [Example 19, 1,3-Dihydro-5-(2-fluorophenyl)-3(RS)-(2-thienyl)methyl-2H-1,4-benzodiazepin-2-one], for which the IC50 was 33 µM at CCK receptor (pancreas) (IC50 ^125 I-CCK Pancreas) and more than 100 µM in assay [1] (IC50 ^125 I-CCK Brain).

Regarding `O=C1[C@H](Cc2c[nH]c3ccccc23)N=C(c2ccccc2)c2cc(Cl)ccc2N1Cc1ccccc1` [Example 33, 1-Benzyl-7-chloro-1,3-dihydro-3(S)-(3'-indolyl) methyl-5-phenyl-2H-1,4-benzodiazepin-2-one], the IC50 (on CCK receptor (pancreas) (IC50 ^125 I-CCK Pancreas); in assay [1] (IC50 ^125 I-CCK Brain)) was more than 100 µM throughout.
